Laboratory results from ChEMBL document CHEMBL1201862, “PubChem BioAssay data set” (2004).
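These data come from cells grown in 96-well plates and exposed to compound for 48 hours at five concentrations. At the GI50, growth is halved.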 Active and inactive are the calls of the source. No stated cut-off is given here; in the data, active = GI50 up to about 1.1 µM and inactive = higher.

What was measured:
Assay in all cases: DTP human tumour cell line panel, 48 h
MOLT-4 = test system: MOLT-4
LOX IMVI = test system: LOX IMVI
KM12 = test system: KM12
PC-3 = test system: PC-3
U-251 = test system: U-251
NCI/ADR-RES = test system: NCI/ADR-RES
SF-539 = test system: SF-539
MDA-MB-231 = test system: MDA-MB-231
BT-549 = test system: BT-549
MCF7 = test system: MCF7
Hs-578T = test system: Hs-578T
SF-268 = test system: SF-268
HOP-92 = test system: HOP-92
CAKI-1 = test system: CAKI-1
UACC-62 = test system: UACC-62
HCT-116 = test system: HCT-116
Malme-3M = test system: Malme-3M
786-0 = test system: 786-0
HCC 2998 = test system: HCC 2998
SK-MEL-2 = test system: SK-MEL-2

Measured: GI50

c1ccc(CN2COc3c(ccc4c5c(ccc34)CN(Cc3ccccc3)CO5)C2)cc1
inactive: MOLT-4 > 100 µM | LOX IMVI > 100 µM | KM12 > 100 µM | PC-3 > 100 µM | U-251 > 100 µM | NCI/ADR-RES > 100 µM | SF-539 > 100 µM | MDA-MB-231 > 100 µM | BT-549 > 100 µM | MCF7 > 100 µM | Hs-578T > 100 µM | SF-268 > 100 µM | HOP-92 > 100 µM | CAKI-1 > 100 µM | UACC-62 > 100 µM | HCT-116 > 100 µM | Malme-3M > 100 µM | 786-0 > 100 µM | HCC 2998 > 100 µM | SK-MEL-2 > 100 µM

COc1cccc2c1C(CO)N1C(C#N)C3CC(C(=O)O)C(C1C2)N3C (stereo not given)
inactive: MOLT-4 1.48 µM | LOX IMVI 1.95 µM | KM12 1.98 µM | U-251 1.52 µM | SF-539 1.41 µM | SF-268 1.85 µM | HOP-92 1.99 µM | CAKI-1 1.29 µM | UACC-62 1.16 µM | HCT-116 1.69 µM | Malme-3M 1.92 µM | 786-0 1.3 µM | SK-MEL-2 1.21 µM
active: PC-3 0.331 µM | NCI/ADR-RES 0.367 µM | MDA-MB-231 0.15 µM | BT-549 0.213 µM | MCF7 0.272 µM | Hs-578T 0.238 µM | HCC 2998 0.405 µM

COc1ccc2c(c1)c(=O)c1c(NCCNCCO)ccc3c(=O)n(CCN(C)C)c(=O)n2c31
inactive: NCI/ADR-RES 1.26 µM
active: MOLT-4 < 0.01 µM | LOX IMVI 0.0198 µM | KM12 0.142 µM | PC-3 0.0836 µM | U-251 < 0.0374 µM | SF-539 < 0.0265 µM | MDA-MB-231 0.132 µM | BT-549 0.615 µM | MCF7 < 0.0276 µM | Hs-578T 0.132 µM | SF-268 0.103 µM | HOP-92 0.0766 µM | CAKI-1 0.0537 µM | UACC-62 0.0662 µM | HCT-116 < 0.0186 µM | Malme-3M 0.0989 µM | 786-0 < 0.0117 µM | HCC 2998 < 0.0337 µM | SK-MEL-2 0.243 µM

CNc1ncnc2c1cnn2Cc1cn(CCCCO)nn1
inactive: MOLT-4 > 100 µM | LOX IMVI > 100 µM | KM12 > 100 µM | PC-3 > 100 µM | U-251 > 100 µM | NCI/ADR-RES > 100 µM | SF-539 > 100 µM | MDA-MB-231 > 100 µM | BT-549 > 100 µM | MCF7 > 100 µM | Hs-578T > 100 µM | SF-268 > 100 µM | HOP-92 > 100 µM | CAKI-1 > 100 µM | UACC-62 > 100 µM | HCT-116 > 100 µM | Malme-3M > 100 µM | 786-0 > 100 µM | HCC 2998 > 100 µM | SK-MEL-2 > 100 µM

CCOC(=O)C1(Cc2ccccc2)CCN(C(=O)c2ccccc2)C2C1C2(Cl)Cl (stereo not given)
inactive: MOLT-4 20 µM | LOX IMVI 18.4 µM | KM12 29.9 µM | PC-3 16.7 µM | U-251 15.9 µM | NCI/ADR-RES 21.3 µM | SF-539 18 µM | MDA-MB-231 17.1 µM | BT-549 25.2 µM | MCF7 25.4 µM | Hs-578T 26.7 µM | SF-268 29 µM | HOP-92 26.6 µM | CAKI-1 24.3 µM | UACC-62 12 µM | HCT-116 15 µM | Malme-3M 21.4 µM | 786-0 20.1 µM | HCC 2998 14.5 µM | SK-MEL-2 15.6 µM
